Measurements as given in patent publication US20250006334A1, “SIROLIMUS PHARMACOKINETICS GUIDED AND MODEL INFORMED PRECISION DOSING” (Children's Hospital Medical Center, priority 2023, published 2025).

Assay: Observed sirolimus trough blood concentration in infant patients under model-informed precision dosing
Assay type: in vivo, human
Source text: After therapy has been initiated using the initial dose, data may be collected 103 on the impact of the therapy. This may be done, for example, by, 7-14 days after the start of therapy, taking a pre-dose trough blood sample which could then be sent to a lab to determine a sirolimus blood concentration. Alternatively, in some cases additional samples may be taken. For example, in a case where an abbreviated area under the curve PK consult is ordered, data collection 103 may include taking three whole blood samples: a first sample taken 15-30 minutes before a dose, a second sample taken 45-75 minutes after the dose, and a third sample taken 150-210 minutes after the dose. A laboratory could then process the sample(s), and the sirolimus concentration could be reported back. For example, in a case where an application for recommending individualized sirolimus doses was implemented based on this disclosure, the lab could report the results back through an API exposed by a web portal supported by the application, or could send the results back through an external communication channel (e.g., secure email) to the user of the application, and that user could then input the results to the application himself or herself.
However the model refinement 105 is performed, once a refined model is available, it may be applied 106 to determine a personalized dose for the patient. […]

## CO[C@H]1C[C@@H]2CC[C@@H](C)[C@@](O)(O2)C(=O)C(=O)N2CCCC[C@H]2C(=O)O[C@H]([C@H](C)C[C@@H]2CC[C@@H](O)[C@H](OC)C2)CC(=O)[C@H](C)/C=C(\C)[C@@H](O)[C@@H](OC)C(=O)[C@H](C)C[C@H](C)/C=C/C=C/C=C/1C [sirolimus]
FIG. 2, infant who started sirolimus at 2 months of age, doses predicted from weight, PMA and concentration measured at three months, target range 10-12 ng/mL
  observed sirolimus trough concentration at six months of age: 9.3 ng/mL
FIG. 3, prediction from age 4 months to 6 months based on concentration at 4 months, weight and PMA, target trough range 10-12 ng/mL
  observed sirolimus trough concentration at 6 months: 10.5 ng/mL
